# Measured values taken from patent US9382258B2, “Agents for treating pain and uses thereof” (AbbVie Inc., priority 2012, dated 2016).
# Biological target: T1, human Cav2.2 (Homo sapiens, UniProt Q00975)
# T1 construct: cells endogenously expressing human Cav2.2; endogenous in cells; host or cells: IMR32 cells
# Assay: Calcium flux (FLIPR, Calcium 4 dye) in IMR32 cells endogenously expressing human Cav2.2
# Format: cell-based
# Conditions: 60 minute pre-incubation, 2 μM nifedipine to block L-type channels, depolarized with 80 mM KCl, 5 mM CaCl2, average of n≥2 runs unless marked *
# Description: Compounds were tested for effect on calcium flux in cells endogenously expressing human Cav2.2. Specifically, IMR32 cells endogenously expressing human Cav2.2 were assayed for Ca^2+ influx using a no-wash calcium indicator dye (Calcium 4 dye: Molecular Probes) and FLIPR technology (Lubin, M L; et al. Assay and Drug Development Technologies, 2006, 4(6), 689-694). The IMR32 cells were maintained in MEM media containing 10% (v/v) FBS, 1% (v/v) antibiotic/antimitotic, 1% (v/v) sodium pyruvate and 1% (v/v) MEM NEAA. Following dissociation in 0.05% (v/v) trypsin/EDTA, cells were seeded into black 1×96-well plates (Corning Cellbind) at a density of 1−1.2×10^5 cells/well and incubated in the maintenance media above for 48 hours at 37° C. Immediately prior to performing the assay the media was removed and cells were loaded for 1.5 hours with 1× Calcium 4 dye prepared in HBSS (137 mM NaCl, 5.4 mM KCl, 0.25 mM Na2HPO4, 0.44 mM KH2PO4, 1.3 mM CaCl2, 1 mM MgSO4, 4.2 mM NaHCO3) containing HEPES pH 7.4 at room temperature. After dye loading and a subsequent 60 minute pre-incubation with compounds (full log dilutions from 10 μM to 0.1 nM) in the presence of 1.3 mM CaCl2 and 2 μM nifedipine to block endogenous L-type channels, the external Ca^2+ concentration was increased to 5 mM CaCl2 and the cells concomitantly depolarized with 80 mM KCl to assay channel activity.
# To determine the IC50 values, the percent inhibition of the compound at each concentration was determined relative to the activity in the absence of inhibitor, and data was fitted using non-linear regression sigmoidal dose response curve analysis with GraphPad Prism®. Unless otherwise indicated (*), the reported values are average values from at least two runs (i.e., n≧2).
# T1 sequence (Q00975 whole entry): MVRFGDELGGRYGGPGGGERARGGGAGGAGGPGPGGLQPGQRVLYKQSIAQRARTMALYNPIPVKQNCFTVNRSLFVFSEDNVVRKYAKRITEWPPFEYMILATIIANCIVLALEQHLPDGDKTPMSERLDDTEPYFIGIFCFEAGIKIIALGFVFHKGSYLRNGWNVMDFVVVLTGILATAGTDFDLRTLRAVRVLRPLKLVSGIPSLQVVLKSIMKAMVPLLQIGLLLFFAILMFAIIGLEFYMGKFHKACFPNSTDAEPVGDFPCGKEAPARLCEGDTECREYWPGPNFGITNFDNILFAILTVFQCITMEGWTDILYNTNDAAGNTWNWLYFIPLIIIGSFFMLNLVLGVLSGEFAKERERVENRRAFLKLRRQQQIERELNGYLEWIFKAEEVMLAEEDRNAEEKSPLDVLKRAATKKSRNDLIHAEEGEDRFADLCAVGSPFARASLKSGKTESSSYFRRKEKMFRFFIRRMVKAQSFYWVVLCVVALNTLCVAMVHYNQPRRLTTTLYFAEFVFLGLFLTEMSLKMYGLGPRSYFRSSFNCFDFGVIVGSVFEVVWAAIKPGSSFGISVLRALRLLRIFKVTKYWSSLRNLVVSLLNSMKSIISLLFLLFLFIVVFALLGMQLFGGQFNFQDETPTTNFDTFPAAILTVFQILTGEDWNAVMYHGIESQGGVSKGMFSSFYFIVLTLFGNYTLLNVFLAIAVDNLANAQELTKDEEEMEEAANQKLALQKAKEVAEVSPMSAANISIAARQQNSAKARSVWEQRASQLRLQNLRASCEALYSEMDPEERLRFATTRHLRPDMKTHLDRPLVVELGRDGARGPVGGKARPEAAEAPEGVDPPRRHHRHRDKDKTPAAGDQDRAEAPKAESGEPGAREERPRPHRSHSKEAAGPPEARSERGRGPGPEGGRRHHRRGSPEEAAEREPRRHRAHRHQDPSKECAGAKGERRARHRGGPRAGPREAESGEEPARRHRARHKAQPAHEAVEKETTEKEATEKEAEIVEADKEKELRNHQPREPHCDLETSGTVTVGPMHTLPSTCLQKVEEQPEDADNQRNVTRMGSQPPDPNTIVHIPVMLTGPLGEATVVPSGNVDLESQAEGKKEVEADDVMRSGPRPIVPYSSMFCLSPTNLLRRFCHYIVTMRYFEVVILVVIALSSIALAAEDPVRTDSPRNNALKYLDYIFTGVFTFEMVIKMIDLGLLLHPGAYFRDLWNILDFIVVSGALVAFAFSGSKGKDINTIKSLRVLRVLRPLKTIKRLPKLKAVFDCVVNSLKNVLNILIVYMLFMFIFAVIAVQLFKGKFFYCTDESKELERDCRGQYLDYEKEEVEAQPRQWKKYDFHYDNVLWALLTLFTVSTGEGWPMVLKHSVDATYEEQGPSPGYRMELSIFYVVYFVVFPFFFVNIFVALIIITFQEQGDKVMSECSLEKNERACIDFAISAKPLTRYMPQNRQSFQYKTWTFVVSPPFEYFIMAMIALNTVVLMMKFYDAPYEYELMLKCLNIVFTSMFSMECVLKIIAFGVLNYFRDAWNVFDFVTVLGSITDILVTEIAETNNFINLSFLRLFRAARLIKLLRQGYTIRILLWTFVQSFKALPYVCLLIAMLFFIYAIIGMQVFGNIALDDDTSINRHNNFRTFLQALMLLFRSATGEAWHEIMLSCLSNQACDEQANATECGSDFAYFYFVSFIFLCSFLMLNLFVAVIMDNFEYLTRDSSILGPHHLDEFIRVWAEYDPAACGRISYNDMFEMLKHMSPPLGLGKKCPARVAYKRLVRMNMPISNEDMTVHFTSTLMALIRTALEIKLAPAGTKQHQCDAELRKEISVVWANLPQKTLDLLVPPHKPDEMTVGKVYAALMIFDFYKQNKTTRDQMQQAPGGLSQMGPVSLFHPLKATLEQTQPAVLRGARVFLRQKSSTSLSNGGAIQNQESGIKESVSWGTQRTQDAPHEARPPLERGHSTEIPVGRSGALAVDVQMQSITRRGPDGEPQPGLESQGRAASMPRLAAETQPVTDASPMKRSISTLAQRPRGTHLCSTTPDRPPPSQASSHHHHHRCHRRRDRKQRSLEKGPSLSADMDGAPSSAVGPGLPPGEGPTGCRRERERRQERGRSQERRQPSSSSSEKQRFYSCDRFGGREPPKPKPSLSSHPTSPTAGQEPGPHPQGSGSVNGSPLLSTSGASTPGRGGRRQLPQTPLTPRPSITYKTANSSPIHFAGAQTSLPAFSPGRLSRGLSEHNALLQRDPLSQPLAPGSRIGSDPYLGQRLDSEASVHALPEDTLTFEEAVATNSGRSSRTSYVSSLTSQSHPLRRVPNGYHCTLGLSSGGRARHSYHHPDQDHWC
# T1 sequence (P54284 whole entry partner): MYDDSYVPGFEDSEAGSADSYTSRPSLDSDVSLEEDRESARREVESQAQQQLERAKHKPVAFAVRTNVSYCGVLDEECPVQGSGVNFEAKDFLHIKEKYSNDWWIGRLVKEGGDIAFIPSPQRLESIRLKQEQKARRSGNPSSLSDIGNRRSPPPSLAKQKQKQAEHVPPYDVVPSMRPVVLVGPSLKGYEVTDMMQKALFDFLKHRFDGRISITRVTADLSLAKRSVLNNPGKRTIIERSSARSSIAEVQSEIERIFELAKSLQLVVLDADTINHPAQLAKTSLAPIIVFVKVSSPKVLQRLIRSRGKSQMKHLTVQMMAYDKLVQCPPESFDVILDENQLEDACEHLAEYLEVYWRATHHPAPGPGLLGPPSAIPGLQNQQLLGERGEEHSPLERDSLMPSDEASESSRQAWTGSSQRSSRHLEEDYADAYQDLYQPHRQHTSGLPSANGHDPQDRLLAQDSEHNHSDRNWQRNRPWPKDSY
# T1 sequence (P54289 25-956 partner limits assumed): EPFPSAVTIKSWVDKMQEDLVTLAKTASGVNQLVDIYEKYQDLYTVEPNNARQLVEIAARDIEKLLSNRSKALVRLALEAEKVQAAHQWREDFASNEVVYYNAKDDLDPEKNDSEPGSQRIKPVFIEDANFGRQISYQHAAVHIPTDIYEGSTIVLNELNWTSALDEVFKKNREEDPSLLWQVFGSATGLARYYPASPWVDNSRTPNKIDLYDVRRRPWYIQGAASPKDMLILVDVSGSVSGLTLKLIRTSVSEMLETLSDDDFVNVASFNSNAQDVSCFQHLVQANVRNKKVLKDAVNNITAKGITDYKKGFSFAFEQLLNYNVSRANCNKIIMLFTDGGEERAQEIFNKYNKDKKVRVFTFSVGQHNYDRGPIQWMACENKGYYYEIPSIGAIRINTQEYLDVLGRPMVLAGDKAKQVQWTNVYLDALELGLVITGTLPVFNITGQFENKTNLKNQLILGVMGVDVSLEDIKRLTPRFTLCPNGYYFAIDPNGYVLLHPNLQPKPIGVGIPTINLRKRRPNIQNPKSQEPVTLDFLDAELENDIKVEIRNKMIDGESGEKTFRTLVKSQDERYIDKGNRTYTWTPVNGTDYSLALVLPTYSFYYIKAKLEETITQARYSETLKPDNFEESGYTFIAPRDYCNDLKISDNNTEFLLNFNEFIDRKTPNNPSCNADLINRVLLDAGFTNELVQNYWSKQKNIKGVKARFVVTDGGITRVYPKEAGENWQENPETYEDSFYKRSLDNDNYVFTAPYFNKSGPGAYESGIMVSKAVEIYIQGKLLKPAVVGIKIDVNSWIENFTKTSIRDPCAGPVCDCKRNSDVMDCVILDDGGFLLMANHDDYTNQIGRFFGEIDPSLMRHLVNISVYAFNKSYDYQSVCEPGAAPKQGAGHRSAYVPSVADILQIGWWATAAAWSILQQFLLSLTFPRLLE
# T1 sequence (P54289 957-1103 partner limits assumed): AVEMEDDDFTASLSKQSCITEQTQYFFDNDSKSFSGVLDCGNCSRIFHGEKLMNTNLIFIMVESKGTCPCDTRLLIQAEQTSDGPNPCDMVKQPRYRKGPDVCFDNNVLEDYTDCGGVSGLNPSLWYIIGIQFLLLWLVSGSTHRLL
row,SMILES,IC50 [µM]
1,"O=C1[C@H](Oc2ccc(C(F)(F)F)cn2)C[C@H]2CN(S(=O)(=O)c3cccc(C(F)(F)F)c3)CCCN12 [Example 4, (8R,9aS)-2-{[3-(trifluoromethyl)phenyl]sulfonyl}-8-{[5-(trifluoromethyl)pyridin-2-yl]oxy}octahydro-7H-pyrrolo[1,2-a][1,4]diazepin-7-one]",0.88
2,"O=C(c1cccc(OC(F)(F)F)c1)N1CCCN2C[C@H](Oc3cnc(C4CC4)cn3)C[C@H]2C1 [Example 9, [(8R,9aS)-8-[(5-cyclopropylpyrazin-2-yl)oxy]hexahydro-1H-pyrrolo[1,2-a][1,4]diazepin-2(3H)-yl][3-(trifluoromethoxy)phenyl]methanone]",1.35
3,"O=C(c1cccc(C(F)(F)F)n1)N1CCCN2C[C@H](Oc3cnc(C4CC4)cn3)C[C@H]2C1 [Example 12, [(8R,9aS)-8-[(5-cyclopropylpyrazin-2-yl)oxy]hexahydro-1H-pyrrolo[1,2-a][1,4]diazepin-2(3H)-yl][6-(trifluoromethyl)pyridin-2-yl]methanone]",6.22
4,"O=C(c1ccc(C(F)(F)F)c(F)c1)N1CCCN2C[C@H](Oc3cnc(C4CC4)cn3)C[C@H]2C1 [Example 15, [(8R,9aS)-8-[(5-cyclopropylpyrazin-2-yl)oxy]hexahydro-1H-pyrrolo[1,2-a][1,4]diazepin-2(3H)-yl][3-fluoro-4-(trifluoromethyl)phenyl]methanone]",1.33
5,"O=C(c1cc(C(F)(F)F)ccc1F)N1CCCN2C[C@H](Oc3cnc(C4CC4)cn3)C[C@H]2C1 [Example 17, [(8R,9aS)-8-[(5-cyclopropylpyrazin-2-yl)oxy]hexahydro-1H-pyrrolo[1,2-a][1,4]diazepin-2(3H)-yl][2-fluoro-5-(trifluoromethyl)phenyl]methanone]",1.58
6,"O=C(c1ccc(C(F)(F)F)cc1F)N1CCCN2C[C@H](Oc3cnc(C4CC4)cn3)C[C@H]2C1 [Example 18, [(8R,9aS)-8-[(5-cyclopropylpyrazin-2-yl)oxy]hexahydro-1H-pyrrolo[1,2-a][1,4]diazepin-2(3H)-yl][2-fluoro-4-(trifluoromethyl)phenyl]methanone]",1.19
7,"O=C1[C@H](Oc2cnc(C3CC3)cn2)C[C@H]2CN(c3ccc(C(F)(F)F)cn3)CCCN12 [Example 21, (8R,9aS)-8-[(5-cyclopropylpyrazin-2-yl)oxy]-2-[5-(trifluoromethyl)pyridin-2-yl]octahydro-7H-pyrrolo[1,2-a][1,4]diazepin-7-one]",3.47
8,"O=C1[C@@H]2C[C@@H](Oc3cnc(C4CC4)cn3)CN2CCCN1Cc1ccc(C(F)(F)F)cc1 [Example 23, (8R,9aS)-8-[(5-cyclopropylpyrazin-2-yl)oxy]-2-[4-(trifluoromethyl)benzyl]octahydro-1H-pyrrolo[1,2-a][1,4]diazepin-1-one]",0.98
9,"O=C1[C@H]2C[C@@H](Oc3cnc(C4CC4)cn3)CN2CCCN1Cc1ccc(C(F)(F)F)cc1 [Example 24, (8R,9aR)-8-[(5-cyclopropylpyrazin-2-yl)oxy]-2-[4-(trifluoromethyl)benzyl]octahydro-1H-pyrrolo[1,2-a][1,4]diazepin-1-one]",2.94
10,"O=C1[C@@H]2C[C@@H](Oc3cnc(C4CC4)cn3)CN2CCCN1Cc1ccc(C(F)(F)F)c(F)c1 [Example 25, (8R,9aS)-8-[(5-cyclopropylpyrazin-2-yl)oxy]-2-[3-fluoro-4-(trifluoromethyl)benzyl]octahydro-1H-pyrrolo[1,2-a][1,4]diazepin-1-one]",1.19

# The remaining lines, values ahead:
row,IC50 [µM],SMILES
1,0.2,"O=S(=O)(c1ccc(C(F)(F)F)cc1)N1CCCN2C[C@H](Oc3cnc(C4CC4)cn3)C[C@H]2C1 [Example 2, (8R,9aS)-8-[(5-cyclopropylpyrazin-2-yl)oxy]-2-{[4-(trifluoromethyl)phenyl]sulfonyl}octahydro-1H-pyrrolo[1,2-a][1,4]diazepane]"
2,1.25,"O=C1[C@@H](Oc2ccc(C(F)(F)F)cn2)C[C@H]2CN(S(=O)(=O)c3cccc(C(F)(F)F)c3)CCCN12 [Example 3, (8S,9aS)-2-{[3-(trifluoromethyl)phenyl]sulfonyl}-8-{[5-(trifluoromethyl)pyridin-2-yl]oxy}octahydro-7H-pyrrolo[1,2-a][1,4]diazepin-7-one]"
3,1.76,"O=C1[C@@H](Oc2ccc(C(F)(F)F)cn2)C[C@H]2CN(S(=O)(=O)c3ccc(C(F)(F)F)cc3)CCCN12 [Example 5, (8S,9aS)-2-{[4-(trifluoromethyl)phenyl]sulfonyl}-8-{[5-(trifluoromethyl)pyridin-2-yl]oxy}octahydro-7H-pyrrolo[1,2-a][1,4]diazepin-7-one]"
4,0.91,"O=C1[C@H](Oc2ccc(C(F)(F)F)cn2)C[C@H]2CN(S(=O)(=O)c3ccc(C(F)(F)F)cc3)CCCN12 [Example 6, (8R,9aS)-2-{[4-(trifluoromethyl)phenyl]sulfonyl}-8-{[5-(trifluoromethyl)pyridin-2-yl]oxy}octahydro-7H-pyrrolo[1,2-a][1,4]diazepin-7-one]"
5,3.04,"O=C(c1ccc(F)cc1)N1CCCN2C[C@H](Oc3cnc(C4CC4)cn3)C[C@H]2C1 [Example 8, [(8R,9aS)-8-[(5-cyclopropylpyrazin-2-yl)oxy]hexahydro-1H-pyrrolo[1,2-a][1,4]diazepin-2(3H)-yl](4-fluorophenyl)methanone]"
6,0.92,"O=C(c1cccc(C(F)(F)F)c1F)N1CCCN2C[C@H](Oc3cnc(C4CC4)cn3)C[C@H]2C1 [Example 10, [(8R,9aS)-8-[(5-cyclopropylpyrazin-2-yl)oxy]hexahydro-1H-pyrrolo[1,2-a][1,4]diazepin-2(3H)-yl][2-fluoro-3-(trifluoromethyl)phenyl]methanone]"
7,9.27,"O=C(c1ccc(C(F)(F)F)cn1)N1CCCN2C[C@H](Oc3cnc(C4CC4)cn3)C[C@H]2C1 [Example 11, [(8R,9aS)-8-[(5-cyclopropylpyrazin-2-yl)oxy]hexahydro-1H-pyrrolo[1,2-a][1,4]diazepin-2(3H)-yl][5-(trifluoromethyl)pyridin-2-yl]methanone]"
8,1.45,"O=C(c1ccc(F)c(C(F)(F)F)c1)N1CCCN2C[C@H](Oc3cnc(C4CC4)cn3)C[C@H]2C1 [Example 14, [(8R,9aS)-8-[(5-cyclopropylpyrazin-2-yl)oxy]hexahydro-1H-pyrrolo[1,2-a][1,4]diazepin-2(3H)-yl][4-fluoro-3-(trifluoromethyl)phenyl]methanone]"
9,2.3,"O=C(c1ccc(F)c(Cl)c1)N1CCCN2C[C@H](Oc3cnc(C4CC4)cn3)C[C@H]2C1 [Example 16, (3-chloro-4-fluorophenyl)[(8R,9aS)-8-[(5-cyclopropylpyrazin-2-yl)oxy]hexahydro-1H-pyrrolo[1,2-a][1,4]diazepin-2(3H)-yl]methanone]"
10,0.75,"FC(F)(F)c1cccc(N2CCCN3C[C@H](Oc4cnc(C5CC5)cn4)C[C@H]3C2)n1 [Example 20, (8R,9aS)-8-[(5-cyclopropylpyrazin-2-yl)oxy]-2-[6-(trifluoromethyl)pyridin-2-yl]octahydro-1H-pyrrolo[1,2-a][1,4]diazepane]"
11,1.72,"O=C1[C@@H]2C[C@@H](Oc3cnc(C4CC4)cn3)CN2CCCN1Cc1cccc(C(F)(F)F)c1 [Example 22, (8R,9aS)-8-[(5-cyclopropylpyrazin-2-yl)oxy]-2-[3-(trifluoromethyl)benzyl]octahydro-1H-pyrrolo[1,2-a][1,4]diazepin-1-one]"
